# Assay results published in US20260325464A1, “COMPOSITIONS FOR MODULATING THE EXPRESSION OF AQUAPORINS IN NEURODEGENERATIVE DISORDERS” (priority 2023, published 2026).
# Columns and labels:
# Type in all cases: in vivo, rat
# [1] = system: frontal cortex and hippocampus; assay: Brain histopathology (H&E), AlCl3 Alzheimer's model; conditions: 5 mg/kg, 10 mg/kg and 20 mg/kg
# From the text: (§1) The brain histopathology was done for all the experimental groups. The brain tissue was fixed in 10% buffered neutral formalin solution. The tissue was embedded in paraffin, sectioned at […] stained with hematoxylin and eosin (H&E). The sections were examined under light microscope to study the architecture of the brain tissue, and then photomicrographs were taken (Fischer A H, Jacobson K A, Rose J, Zeller R. Hematoxylin and eosin staining of tissue and cell sections. CSH Protoc. 2008:1;pdb.prot4986. doi: 10.1101/pdb.prot4986).
# Apolipoprotein E = Apolipoprotein E level in plasma (ELISA), AlCl3 Alzheimer's model; conditions: for Apolipoprotein E: p.o. + AlCl3 (100 mg/kg, i.p.), plasma, Mean ± SEM, n = 6
# From the text: The levels of Tau, β-amyloid (1-42) and Apolipoprotein E were estimated. using ELISA kit (Krishgen Biosystems, India). All the protein biomarkers of AD were elevated in the AD control group.
# Dopamine = Dopamine in brain (kinetic spectrophotometric), reserpine Parkinson's model; conditions: for Dopamine: p.o. + Reserpine (4 mg/kg, s.c.), brain, Mean ± SEM, n = 6
# From the text: (§2) The induction of Parkinson's disease and measurement of other parameters were done as per the reported protocol (Santos et al., Cognitive, motor and tyrosine hydroxylase temporal impairment in a model of parkinsonism induced by reserpine. Behav Brain Res. 2013; 253:68-77 and Shishehbore et al. A novel kinetic spectrophotometric method for the determination of dopamine in biological and pharmaceutical samples. J Chem. 2013; 2013:1-6). Induction of Parkinson's disease was done by administering Resperine, which inhibits the monoamine vesicular transporters, thus decreasing the levels of monoamine neurotransmitters in the brain. Following pretreatment for 14 days with Gingerenone A, the rat groups received subcutaneous injections of reserpine (4 mg/kg) for the final five days of the treatment regimen. Resperine (5 mg) was dissolved in 1 ml of 1% acetic acid and then diluted tenfold with distilled water to achieve a final concentration of 500 μg/ml. The normal control group received saline with 1% acetic acid for 14 days, administered from day 10 to day 14. Thirty minutes following the administration of reserpine on the 14th day, behavioural assessments were conducted using the Open Field test, Y Maze, and Catalepsy tests to evaluate changes. […] Upon completion of the study, brains were harvested for biochemical analyses and histopathological studies. The experimental group is depicted in table 10.
# Dopamine—Studies have shown that symptoms of Parkinson's develop in patients with an 80 percent or greater loss of dopamine-producing cells in the substantia nigra. Normally, dopamine operates in a delicate balance with other neurotransmitters to help coordinate the millions of nerve and muscle cells involved in movement. Neurons of the substantia nigra communicate with neurons of the basal ganglia by liberating the neurotransmitter dopamine (DA). Such an interaction at the biochemical level is responsible for the fine tuning of the movements. The proposed method for the estimation of dopamine is based on inhibitory effect of dopamine on the oxidation of thionine by bromate in acidic media. The change in absorbance was recorded spectrophotometrically at 601 nm (Shishehbore et al., Novel Kinetic Spectrophotometric Method for the Determination of Dopamine in Biological and Pharmaceutical Samples. 2013. Article ID 819460, https://doi.org/10.1155/2013/819460).
# Aquaporin 9 (AQP9) = assay: AQP9 expression, reserpine Parkinson's model; conditions: 5, 10 and 20 mg/kg, FIG. 9
# From the text: The induction of Parkinson's disease and measurement of other parameters were done as per the reported protocol (Santos et al., Cognitive, motor and tyrosine hydroxylase temporal impairment in a model of parkinsonism induced by reserpine. Behav Brain Res. 2013; 253:68-77 and Shishehbore et al. A novel kinetic spectrophotometric method for the determination of dopamine in biological and pharmaceutical samples. J Chem. 2013; 2013:1-6). Induction of Parkinson's disease was done by administering Resperine, which inhibits the monoamine vesicular transporters, thus decreasing the levels of monoamine neurotransmitters in the brain. Following pretreatment for 14 days with Gingerenone A, the rat groups received subcutaneous injections of reserpine (4 mg/kg) for the final five days of the treatment regimen. Resperine (5 mg) was dissolved in 1 ml of 1% acetic acid and then diluted tenfold with distilled water to achieve a final concentration of 500 μg/ml. The normal control group received saline with 1% acetic acid for 14 days, administered from day 10 to day 14. Thirty minutes following the administration of reserpine on the 14th day, behavioural assessments were conducted using the Open Field test, Y Maze, and Catalepsy tests to evaluate changes. Rats administered with Carbidopa, a known drug for the management of Parkinson's disease was also used for comparison. […]
# Parkinson's disease = assay: Y-maze test in rats with reserpine-induced Parkinson's disease; conditions: for No of arm entries / Spontaneous alterations (%): p.o. + Reserpine (4 mg/kg, s.c.), Y maze, Mean ± SEM, n = 6
# From the text: The induction of Parkinson's disease and measurement of other parameters were done as per the reported protocol (Santos et al., Cognitive, motor and tyrosine hydroxylase temporal impairment in a model of parkinsonism induced by reserpine. Behav Brain Res. 2013; 253:68-77 and Shishehbore et al. A novel kinetic spectrophotometric method for the determination of dopamine in biological and pharmaceutical samples. J Chem. 2013; 2013:1-6). Induction of Parkinson's disease was done by administering Resperine, which inhibits the monoamine vesicular transporters, thus decreasing the levels of monoamine neurotransmitters in the brain. Following pretreatment for 14 days with Gingerenone A, the rat groups received subcutaneous injections of reserpine (4 mg/kg) for the final five days of the treatment regimen. Resperine (5 mg) was dissolved in 1 ml of 1% acetic acid and then diluted tenfold with distilled water to achieve a final concentration of 500 μg/ml. The normal control group received saline with 1% acetic acid […], administered from day 10 to day 14. Thirty minutes following the administration of reserpine on the 14th day, behavioural assessments were conducted using the Open Field test, Y Maze, and Catalepsy tests to evaluate changes. Rats administered with Carbidopa, a known drug for the management of Parkinson's disease was also used for comparison. Upon completion of the study, brains were harvested for biochemical analyses and histopathological studies. The experimental group is depicted in table 10.
# Y-maze test—In the Y-maze test, spontaneous alterations serve as an indicator of working short-term memory.
# The maze consisted of a triangular central area with three equilateral arms labeled A, B, and C, each measuring 35 cm in length, 25 cm in height, and 10 cm in width. During the test, each rat was placed in the central area, facing one of the arms. An entry was scored when all four paws of the rat entered an arm. Spontaneous alterations in behavior were defined as consecutive entries into different arms (e.g., ABC, BCA, or CAB, but not CAC). The maximum number of spontaneous alterations ([…]) and the percentage of spontaneous alterations (actual number of alterations divided by the maximum alterations, multiplied by 100) were calculated for each rat (Kraeuter et al., The Y-Maze for Assessment of Spatial Working and Reference Memory in Mice. Methods Mol Biol. 2019; 1916:105-111).
# substantia nigra = assay: Brain histopathology of substantia nigra, reserpine Parkinson's model
# From the text: as §1, §2
smiles,measurement,setting,value
COc1cc(CC/C=C/C(=O)CCc2ccc(O)c(OC)c2)ccc1O [Gingerenone A],histopathology of frontal cortex,"[1]; FIG. 5A, 6A, 7A","intact pyramidal cells having round to oval vesicular nucleus with abundant cytoplasm, neuroglial cells, granular cells and intact blood vessels with degenerated cells [mild to moderate] with dystrophic changes having shrunken and hyperchromatic nuclei and without inflammation"
same,"histopathology of hippocampus (CA1, CA2, CA3)","[1]; FIG. 5B-D, 6B-D, 7B-D",intact architecture consisting of Cornu Ammonis [CA] and dentate gyrus with compact layers of pyramidal cells having vesicular nuclei and moderate cytoplasm without shrinkage and necrosis
same,Apolipoprotein E,Apolipoprotein E; 5 mg/kg,7.47 ± 0.054 ng/mL
same,Apolipoprotein E,Apolipoprotein E; 10 mg/kg,7.08 ± 0.076 ng/mL
same,Apolipoprotein E,Apolipoprotein E; 20 mg/kg,6.84 ± 0.034 ng/mL
same,levels of Apolipoprotein E (in words),"Apolipoprotein E; AlCl3 model, Table 8",significantly reduced
same,Dopamine,Dopamine; 5 mg/kg,0.124 ± 0.007 µg/mL
same,Dopamine,Dopamine; 10 mg/kg,0.142 ± 0.011 µg/mL
same,Dopamine,Dopamine; 20 mg/kg,0.141 ± 0.011 µg/mL
same,dopamine levels (in words),"Dopamine; reserpine model, Table 14",increased
same,AQP9 expression (in words),Aquaporin 9 (AQP9),inhibited AQP9 expression
same,No of arm entries,Parkinson's disease; 5 mg/kg,9.37 ± 0.29
same,Spontaneous alterations (%),Parkinson's disease; 5 mg/kg,21.43 ± 1.08 %
same,No of arm entries,Parkinson's disease; 10 mg/kg,11.57 ± 0.92
same,Spontaneous alterations (%),Parkinson's disease; 10 mg/kg,26.87 ± 1.05 %
same,No of arm entries,Parkinson's disease; 20 mg/kg,12.09 ± 1.39
same,Spontaneous alterations (%),Parkinson's disease; 20 mg/kg,26.21 ± 0.98 %
same,working memory in Y-maze (in words),"Parkinson's disease; reserpine model, Table 12",significantly increase the working memory with increase in entries in the different arms with more number of alterations
same,histopathology of substantia nigra,"substantia nigra; 5 mg/kg, FIG. 12",both normal [FIG. 12A—Arrow] and degenerative neuronal cells having dark nucleus with mild basophilic cytoplasm [FIG. 12B—Arrow] and focal reactive microgliosis. Scant inflammation was noted at places. The neuropils had focal vacuoles
same,histopathology of substantia nigra,"substantia nigra; 10 mg/kg, FIG. 13",both normal [FIG. 13A—Arrow] and degenerative neuronal cells having variable darkly stained nucleus [FIG. 13B—Arrow] with mild basophilic cytoplasm and scant inflammation
same,histopathology of substantia nigra,"substantia nigra; 20 mg/kg, FIG. 14",both normal [FIG. 14A—Arrow] and degenerative neuronal cells having variable darkly stained nucleus [14B—Arrow] with mild basophilic cytoplasm and scant inflammation
